Experimental data published in patent US9815831B2, “3,5-disubstituted-3H-imidazo[4,5-B]pyridine and 3,5-disubstituted-3H-[1,2,3]triazolo[4,5-B] pyridine compounds as modulators of c-Met protein kinases” (Rhizen Pharmaceuticals SA, priority 2012, dated 2017).
Like-named read-outs stand apart in the source and are kept apart here.

Columns and labels:
[1] = molecular target: T1, human recombinant Met kinase (Homo sapiens, UniProt P08581); assay: Colorimetric determination of c-Met kinase activity (HTScan Met Kinase Assay Kit); format: biochemical; conditions: 100 nM (cells without *), read-out: c-Met Enzyme % inhibition @ 100 nM
T1 construct: purchased Cell Signalling Technology, Beverly, Mass
Method in brief: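 Human recombinant Met kinase was preincubated with compound for 5 min at room temperature, then reacted with ATP and biotinylated peptide for 30 min; EDTA stop. Phosphopeptide captured on streptavidin and detected with phospho-tyrosine mAb and europium anti-mouse IgG by time-resolved fluorescence (340/615 nm). Reported as % inhibition or IC50.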

[2] = molecular target: T1, human recombinant Met kinase; assay: as above; format: biochemical; conditions: read-out: c-Met Enzyme IC50
MKN-45 = assay: Inhibition of MKN-45 proliferation (MTT); format: cell-based, human; conditions: Homo sapiens, MKN-45 proliferation; for inhibition at 0.1 µM: 100 nM, read-out: MKN45 % inhibition @ 100 nM; for GI50: read-out: MKN45 GI50
Method in brief: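 High-Met human gastric adenocarcinoma MKN-45 cells plated on day 1 and exposed to compound from day 2. Viability measured by MTT dye reduction on day 5; output given as % inhibition at 100 nM and GI50.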

c-Met kinase = c-Met kinase (Homo sapiens, UniProt P08581); assay: Inhibition of c-Met kinase phosphorylation in MKN-45 cells (cell based ELISA); design: endogenous in cells; host or cells: MKN-45; conditions: Table 4D, 1 h incubation
Experimental: MKN45 cells are a prototype of “c-Met addicted” cells having constitutively activated c-Met kinase similar to that observed in sub-sects of gastric or hepatocellular cancer patients with dysregulated c-Met kinase activity. Inhibition of Met phosphorylation was determined using a cell based ELISA assay according to the following schedule: • Day 1: MKN-45 cells were plated in 96-well plates in complete growth medium. • Day 2: Inhibitors at the desired concentration were added to the plates and incubated for 1 h and lysed subsequently. Lysates were transferred to NUNC Maxisorp plates coated with anti-cMet receptor antibody. Phopho-tyrosine mAb and HRP-lined anti-mouse IgG were used as primary and secondary antibodies respectively. Optical density was measured on a microplate reader (BMG Labtech., Germany) at […]. Inhibition of c-Met phosphorylation in this cell line indicates a therapeutic potential for test compounds in patients diagnosed with cancers caused by aberrant c-Met kinase signalling. Results: The results are provided above in Table 4D as IC50 values.

T1 sequence (P08581 25-1390): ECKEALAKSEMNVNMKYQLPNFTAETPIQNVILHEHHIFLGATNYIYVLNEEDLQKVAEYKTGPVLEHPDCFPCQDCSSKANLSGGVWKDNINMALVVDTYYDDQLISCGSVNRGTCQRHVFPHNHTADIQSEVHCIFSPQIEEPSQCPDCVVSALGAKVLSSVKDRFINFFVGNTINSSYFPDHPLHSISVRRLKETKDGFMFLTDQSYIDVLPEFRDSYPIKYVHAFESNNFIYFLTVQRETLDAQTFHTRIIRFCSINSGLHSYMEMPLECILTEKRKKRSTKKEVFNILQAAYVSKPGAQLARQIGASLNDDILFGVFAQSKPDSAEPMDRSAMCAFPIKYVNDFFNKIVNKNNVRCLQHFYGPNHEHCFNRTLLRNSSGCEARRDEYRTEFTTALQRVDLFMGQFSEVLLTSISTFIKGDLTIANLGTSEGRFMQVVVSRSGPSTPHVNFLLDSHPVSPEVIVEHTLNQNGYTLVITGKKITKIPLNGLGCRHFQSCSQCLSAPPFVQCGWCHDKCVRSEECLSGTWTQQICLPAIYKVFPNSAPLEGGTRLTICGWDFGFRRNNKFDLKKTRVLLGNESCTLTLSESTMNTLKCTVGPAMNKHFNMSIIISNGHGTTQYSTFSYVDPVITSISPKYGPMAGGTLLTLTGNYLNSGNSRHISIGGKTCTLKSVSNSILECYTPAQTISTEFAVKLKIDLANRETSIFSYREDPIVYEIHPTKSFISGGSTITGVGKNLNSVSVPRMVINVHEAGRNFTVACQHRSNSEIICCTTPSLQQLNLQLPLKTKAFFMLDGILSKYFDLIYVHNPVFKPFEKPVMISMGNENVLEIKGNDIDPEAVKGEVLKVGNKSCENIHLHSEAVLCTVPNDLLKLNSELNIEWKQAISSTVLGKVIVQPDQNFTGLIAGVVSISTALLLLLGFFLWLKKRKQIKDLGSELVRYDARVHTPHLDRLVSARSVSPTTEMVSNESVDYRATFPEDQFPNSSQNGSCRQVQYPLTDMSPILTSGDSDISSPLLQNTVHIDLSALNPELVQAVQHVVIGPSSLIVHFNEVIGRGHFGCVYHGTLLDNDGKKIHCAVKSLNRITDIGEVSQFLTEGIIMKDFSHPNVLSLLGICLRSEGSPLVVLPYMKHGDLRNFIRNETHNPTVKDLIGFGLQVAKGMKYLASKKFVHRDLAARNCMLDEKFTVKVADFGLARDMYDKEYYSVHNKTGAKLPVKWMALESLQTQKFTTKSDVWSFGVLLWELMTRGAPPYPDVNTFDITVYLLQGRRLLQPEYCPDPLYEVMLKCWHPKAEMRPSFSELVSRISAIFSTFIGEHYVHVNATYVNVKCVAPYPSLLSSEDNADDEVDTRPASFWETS
Chain of c-Met kinase (P08581 25-1390): as above

SMILES	inhibition at 0.1 µM ([1]; Table 4A)	melting point	other results
O=C(CNC(=O)c1ccccc1)OCCONC(=O)c1ccc(-c2ccc3nnn(Cc4ccc5ncccc5c4)c3n2)cc1Cl [Example 16, 2-(2-chloro-4-(3-(quinolin-6-ylmethyl)-3H-[1,2,3]triazolo[4,5-b]pyridin-5-yl)benzamidooxy)ethyl 2-benzamidoacetate]	75 to 100%	110 to 112 °C	
O=C(NOCCO)c1c(F)cc(-c2ccc3nnn(Cc4ccc5ncsc5c4)c3n2)cc1F [Example 19, 4-(3-(benzo[d]thiazol-6-ylmethyl)-3H-[1,2,3]triazolo[4,5-b]pyridin-5-yl)-2,6-difluoro-N-(2-hydroxyethoxy)benzamide]	75 to 100%	202 to 205 °C	IC50 ([2]; Table 4A): 25 to 50 nM; inhibition at 0.1 µM (MKN-45; MKN-45, Table 4A): 25 to 50%; GI50 (MKN-45; MKN-45, Table 4A): 50 to 100 nM
C[C@@H](O)CNC(=O)c1ccc(-c2ccc3ncn(Cc4ccc5ncccc5c4)c3n2)cc1F [Example 109, (R)-2-fluoro-N-(2-hydroxypropyl)-4-(3-(quinolin-6-ylmethyl)-3H-imidazo[4,5-b]pyridin-5-yl)benzamide]		151 to 158 °C	inhibition at 0.1 µM ([1]; Table 4B): 75 to 100%
C[C@H](O)CNC(=O)c1ccc(-c2ccc3ncn(Cc4ccc5ncccc5c4)c3n2)cc1F [Example 110, (S)-2-fluoro-N-(2-hydroxypropyl)-4-(3-(quinolin-6-ylmethyl)-3H-imidazo[4,5-b]pyridin-5-yl)benzamide]		166 to 169 °C	inhibition at 0.1 µM ([1]; Table 4B): 75 to 100%
NC(=O)c1ccc(-c2ccc3ncn(Cc4ccc5ncccc5c4)c3n2)cc1C(F)(F)F [Example 1024, 4-(3-Quinolin-6-ylmethyl-3H-imidazo[4,5-b]pyridin-5-yl)-2-trifluoromethyl-benzamide]		243 to 245 °C	inhibition at 0.1 µM ([1]; Table 4C): 75 to 100%; IC50 ([2]; Table 4C): < 25 nM; GI50 (MKN-45; MKN-45, Table 4C): 100 to 250 nM
Cc1cc(-c2ccc3ncn(Cc4cc5cccnc5cc4F)c3n2)ccc1C(N)=O [Example 1025, 4-[3-(7-Fluoro-quinolin-6-ylmethyl)-3H-imidazo[4,5-b]pyridin-5-yl]-2-methyl-benzamide]			inhibition at 0.1 µM ([1]; Table 4C): 75 to 100%; IC50 ([2]; Table 4C): < 25 nM; GI50 (MKN-45; MKN-45, Table 4C): 50 to 100 nM
NC(=O)c1ccc(-c2ccc3ncn(Cc4cc5cccnc5cc4F)c3n2)cc1C(F)(F)F [Example 1026, 4-[3-(7-Fluoro-quinolin-6-ylmethyl)-3H-imidazo[4,5-b]pyridin-5-yl]-2-trifluoromethyl-benzamide]		239 to 241 °C	inhibition at 0.1 µM ([1]; Table 4C): 25 to 50%
Cc1cc(-c2ccc3ncn(Cc4c(F)cc5ncccc5c4F)c3n2)ccc1C(N)=O [Example 1027, 4-[3-(5,7-Difluoro-quinolin-6-ylmethyl)-3H-imidazo[4,5-b]pyridin-5-yl]-2-methyl-benzamide]		158 to 160 °C	inhibition at 0.1 µM ([1]; Table 4C): 75 to 100%; inhibition at 0.1 µM (MKN-45; MKN-45, Table 4C): 75 to 100%
CNC(=O)c1ccc(-c2ccc3ncn(Cc4ccc5ncccc5c4)c3n2)cn1 [Example 1031, 5-(3-Quinolin-6-ylmethyl-3H-imidazo[4,5-b]pyridin-5-yl)-pyridine-2-carboxylic acid methylamide]		219 to 221 °C	inhibition at 0.1 µM ([1]; Table 4C): < 25%

Further lines, with some results ahead:

inhibition at 0.1 µM ([1]; Table 4A)	melting point	SMILES	other results
75 to 100%	200 to 203 °C	O=C(NOCCO)c1ccc(-c2ccc3nnn(Cc4ccc5ncccc5c4)c3n2)cc1F [Example 10, 2-fluoro-N-(2-hydroxyethoxy)-4-(3-(quinolin-6-ylmethyl)-3H-[1,2,3]triazolo[4,5-b]pyridin-5-yl)benzamide]	IC50 ([2]; Table 4A): 25 to 50 nM; inhibition at 0.1 µM (MKN-45; MKN-45, Table 4A): 75 to 100%; GI50 (MKN-45; MKN-45, Table 4A): 25 to 50 nM
75 to 100%	168 to 170 °C	CC(=O)OCCONC(=O)c1ccc(-c2ccc3nnn(Cc4ccc5ncccc5c4)c3n2)cc1Cl [Example 11, 2-(2-chloro-4-(3-(quinolin-6-ylmethyl)-3H-[1,2,3]triazolo[4,5-b]pyridin-5-yl)benzamidooxy)ethyl acetate]	
75 to 100%	175 to 177 °C	C[C@H](N)C(=O)OCCONC(=O)c1ccc(-c2ccc3nnn(Cc4ccc5ncccc5c4)c3n2)cc1Cl [Example 13, (S)-2-(2-chloro-4-(3-(quinolin-6-ylmethyl)-3H-[1,2,3]triazolo[4,5-b]pyridin-5-yl)benzamidooxy)ethyl 2-aminopropanoate]	
75 to 100%	130 to 133 °C	CC(C)(C)C(=O)OCCONC(=O)c1ccc(-c2ccc3nnn(Cc4ccc5ncccc5c4)c3n2)cc1Cl [Example 14, 2-(2-chloro-4-(3-(quinolin-6-ylmethyl)-3H-[1,2,3]triazolo[4,5-b]pyridin-5-yl)benzamidooxy)ethyl pivalate]	
75 to 100%	115 to 118 °C	CC(C)C(=O)OCCONC(=O)c1ccc(-c2ccc3nnn(Cc4ccc5ncccc5c4)c3n2)cc1Cl [Example 15, 2-(2-chloro-4-(3-(quinolin-6-ylmethyl)-3H-[1,2,3]triazolo[4,5-b]pyridin-5-yl)benzamidooxy)ethyl isobutyrate]	
< 25%	219 to 222 °C	Cc1ccc2cc(Cn3nnc4ccc(-c5ccc(C(=O)NOCCO)c(Cl)c5)nc43)ccc2n1 [Example 17, 2-chloro-N-(2-hydroxyethoxy)-4-(3-((2-methylquinolin-6-yl)methyl)-3H-[1,2,3]triazolo[4,5-b]pyridin-5-yl) benzamide]	
50 to 75%	194 to 196 °C	O=C(NOCCO)c1ccc(-c2ccc3nnn(Cc4ccc5ncsc5c4)c3n2)cc1Cl [Example 18, 4-(3-(benzo[d]thiazol-6-ylmethyl)-3H-[1,2,3]triazolo[4,5-b]pyridin-5-yl)-2-chloro-N-(2-hydroxyethoxy)benzamide]	IC50 ([2]; Table 4A): 25 to 50 nM; inhibition at 0.1 µM (MKN-45; MKN-45, Table 4A): 25 to 50%; GI50 (MKN-45; MKN-45, Table 4A): 50 to 100 nM
75 to 100%	164 to 166 °C	O=C(NOCCO)c1ccc(-c2ccc3nnn(Cc4ccc5ncsc5c4)c3n2)cc1F [Example 20, 4-(3-(benzo[d]thiazol-6-ylmethyl)-3H-[1,2,3]triazolo[4,5-b]pyridin-5-yl)-2-fluoro-N-(2-hydroxyethoxy)benzamide]	IC50 ([2]; Table 4A): 25 to 50 nM; inhibition at 0.1 µM (MKN-45; MKN-45, Table 4A): 75 to 100%; GI50 (MKN-45; MKN-45, Table 4A): 50 to 100 nM
75 to 100%	208 to 210 °C	Cc1ccc2cc(Cn3nnc4ccc(-c5cc(F)c(C(=O)NOCCO)c(F)c5)nc43)ccc2n1 [Example 21, 2,6-difluoro-N-(2-hydroxyethoxy)-4-(3-((2-methylquinolin-6-yl)methyl)-3H-[1,2,3]triazolo[4,5-b]pyridin-5-yl) benzamide]	IC50 ([2]; Table 4A): 25 to 50 nM; inhibition at 0.1 µM (MKN-45; MKN-45, Table 4A): < 25%
50 to 75%		C[C@H](O)CONC(=O)c1ccc(-c2ccc3nnn(Cc4ccc5ncccc5c4)c3n2)cc1Cl [Example 31, (S)-2-chloro-N-(2-hydroxypropoxy)-4-(3-(quinolin-6-ylmethyl)-3H-[1,2,3]triazolo[4,5-b]pyridin-5-yl) benzamide]	inhibition at 0.1 µM (MKN-45; MKN-45, Table 4A): 50 to 75%; GI50 (MKN-45; MKN-45, Table 4A): 25 to 50 nM; IC50 (c-Met kinase): ≤ 10 nM
75 to 100%	148 to 150 °C	CC(C)(CO)ONC(=O)c1ccc(-c2ccc3nnn(Cc4ccc5ncccc5c4)c3n2)cc1Cl [Example 40, 2-chloro-N-(1-hydroxy-2-methylpropan-2-yloxy)-4-(3-(quinolin-6-ylmethyl)-3H-[1,2,3]triazolo[4,5-b]pyridin-5-yl)benzamide]	
	160 to 162 °C	Cc1cc(-c2ccc3nnn(Cc4ccc5c(ccc[n+]5[O-])c4)c3n2)ccc1C(=O)NOCC(C)(C)O [Example 41, N-(2-Hydroxy-2-methyl-propoxy)-2-methyl-4-[3-(1-oxy-quinolin-6-ylmethyl)-3H-[1,2,3]triazolo[4,5-b]pyridin-5-yl]-benzamide]	
	118 to 120 °C	CNC(=O)c1ccc(-c2ccc3ncn(Cc4ccc5ncccc5c4)c3n2)cc1C [Example 1030, 2,N-Dimethyl-4-(3-quinolin-6-ylmethyl-3H-imidazo[4,5-b]pyridin-5-yl)-benzamide]	inhibition at 0.1 µM ([1]; Table 4C): < 25%
